Test results published in ChEMBL document CHEMBL1127931, “Design and synthesis of a prototypical non-peptidic inhibitor model for the enzme renin” (Bioorg Med Chem Lett, 1994).

What follows are compounds tested against T1, Renin (Homo sapiens, UniProt P00797) (assay: Binding affinity towards human renin was determined).
T1 sequence (P00797 whole entry): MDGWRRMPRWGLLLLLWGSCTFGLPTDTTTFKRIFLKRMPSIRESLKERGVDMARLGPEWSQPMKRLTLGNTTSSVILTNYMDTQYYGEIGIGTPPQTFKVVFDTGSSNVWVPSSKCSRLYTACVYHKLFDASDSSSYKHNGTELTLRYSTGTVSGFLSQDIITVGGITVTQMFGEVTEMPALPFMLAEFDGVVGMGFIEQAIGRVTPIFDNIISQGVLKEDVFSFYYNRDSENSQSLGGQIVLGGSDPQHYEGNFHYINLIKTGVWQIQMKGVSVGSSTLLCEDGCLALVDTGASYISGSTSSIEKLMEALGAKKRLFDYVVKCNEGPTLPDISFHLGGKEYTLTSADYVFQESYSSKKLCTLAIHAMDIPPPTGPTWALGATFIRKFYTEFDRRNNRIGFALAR

Point of comparison: CCCCNC(=O)[C@H](C)C[C@H](O)[C@@H](N)C[C@@H](C)Cc1ccccc1, IC50 37 µM. Against it:
- CCCCNC(=O)[C@H](C)C[C@H](O)[C@@H]1C[C@@H](C)[C@@H](c2ccccc2)N1C(=O)OCc1ccccc1 — higher, > 100 µM
- CCCCNC(=O)[C@H](C)C[C@H](O)[C@H](C[C@@H](C)Cc1ccccc1)NC(=O)OC(C)(C)C — higher, > 100 µM
- CCCCNC(=O)[C@H](C)C[C@H](O)C1C[C@@H](C)[C@@H](c2ccccc2)N1C(=O)OC(C)(C)C (some centres undefined) — higher, > 100 µM
